Patent US9428491B2, “Substituted azoles, antiviral active component, pharmaceutical composition, method for preparation and use thereof” (priority 2010, dated 2016)
Where a name gives a salt, the structure may show the parent alone. Read-outs that look alike come from different tables or passages of the source.

Experiments:
[1] = tested on: subgenomic RNA-replicon HCV (genotype 1b (gT1b), don Con1); experiment: Antiviral activity in Huh7 HCV subgenomic replicon cells, immunoenzymatic assay (IEA); assay type: cell-based, hepatitis C virus; settings: Huh7 cells with HCV gT1b replicon, 3 days incubation
Method: Antiviral activity of substituted azoles of the general formula 1 was determined in the human hepatoma cell line Huh7, comprising subgenomic RNA-replicon HCV (genotype 1b (gT1b), don Con1). A version of immumoenzymatic assay (IEA) on viral protein NS5A in 96-well plate was used as an experimental method. Cytotoxicity of the compounds was estimated in parallel regime. Cells Huh7 were seeded in 96-well plate (7.5×10^3 cells to each well in 100 μl of culture medium). Solutions of the tested compounds in DMEM medium {DMEM) 1×; Source: Cellgro; Catalogue: 10-013-CV} were prepared immediately before use. Eleven serial three fold dilutions with variation of concentrations from 20 nM to 0.2 pM were prepared. In 4 hours after seeding, serial dilutions of the compounds were added to the cells (100 μl to each well). Final concentration of tested compounds was varied from 10 nM to 0.1 pM, and DMSO—0.5%. If it was necessary, higher concentrations of the disclosed azoles were investigated. Each dilution of the compound was tested on two identical wells. Then the cells were incubated for three days at 37° C./5% CO2 and fixed by addition of acetone/methanol (1:1) mixture in amount of 250 μl/well. In 1 min the cells were washed 3 times with PBS (Phosphate Buffered Saline) solution. Then the cells were blocked by addition of 10% fetal calf serum in PBS solution in amount of 150 μl/well for 1 h at room temperature. Then, the cells were incubated with mouse monoclonal antibodies to cor-antigen HCV, don C7-50 (Source: Affinity BioReagents; Catalogue: MA1-080) (100 μl/well, working dilution—1:500 in 10% fetal calf serum in PBS solution) for 2 h at 37° C. The cells were washed 6 times with PBS/0.05% Tween 20 solution, then, they were incubated for 1 h with goat anti-mouse immunoglobulin antibodies (conjugated with horseradish peroxidase, 100 μl/well, working dilution—1:2500 in 10% fetal calf serum in PBS solution). The cells were washed 6 times with PBS/0.05% Tween 20 solution, once with PBS solution, after that substrate (1 tablet of o-phenylenediamine (oPD)+12 ml citrate/phosphate buffer+5 μl 30% H2O2) in amount of 100 μl/well was added. The plates were kept for 30 min in the dark at room temperature. The reaction was arrested by the addition of 2N H2SO4 in amount of 100 μl/well, and optical density (wavelength 490 nm) was measured by means of multiscan plate reader Victor3 V 1420 (Perkin Elmer). IC50 values (azole concentration, lowering the level of virus RNA-replicon on 50%) for every tested azole were calculated with the help of XLfit 4 program.

[2] = tested on: human hepatoma cell line Huh7; experiment: Cytotoxicity in Huh7 cells (ATPLite); assay type: cell-based; settings: 96 h incubation, read-out: CC50, nM (gT1b)
Method: (§1) Cytotoxicity of the disclosed azoles was tested in experiments in the human hepatoma cell line Huh7. The amount of living cells was determined with the help of ATPLite kit (Perkin Elmer, Boston, USA) in accordance with manufacturer instructions. Cytotoxic action was estimated by seeding the cells into black microplate with transparent bottom (96 wells, 10^4 cells to each well). Three independent repeatings were used for each bis-azole. The tested bis-azoles were added in 18 h, after that the cells were incubated together with the compounds for 96 h. Each well was washed two times with phosphate buffered saline (0.2 ml/well) and then the cells were lysed by addition of cell buffer (50 μl/well) (all mentioned reagents are included in ATPLite kit). The microplate was incubated for 5 min on a rotating platform at 600 r/min, after that 50 μl of substrate solution (a part of ATPLite kit) was added into each well. The microplate was incubated for additional 5 min on a rotating platform at 600 r/min, kept for 10 min in the dark, after that luminescence was measured using TopCount NXT instrument (Packard, Perkin Elmer).
(§2) CC50 Value corresponding to bis-azole concentration at which 50% of cells were ruined was used as quantitative characteristic for cytotoxicity estimation. Calculation of CC50 value: for calculation of inhibition effectiveness (% Inh) the following equation was used: % Inh=[(L^pos−L^ex)/L^pos−L^neg)]*100%, where L^pos—positive control, luminescence in the wells with cells without compounds; L^neg—negative control, luminescence in the wells with medium without cells; L^ex—luminescence in wells with a compound of definite concentration. Then, CC50 values were calculated with the help of XLfit 4 program. Test results for novel azoles of the general formula 1 testify their high (nanomolar) or very high (picomolar) activity.

[3] = Cytotoxicity in Huh7 cells (ATPLite); assay type: cell-based, human; settings: human, Huh7 cells (human hepatoma cell line), 96 h incubation, read-out: CC50, nM (gT1b)
Method: as §1, §2

Compound	IC50 [1]	CC50 [2]	IC50 ([1]; Hepatitis C virus, Huh-7, 72 h)	CC50 at 96 h [3]	other results
Methyl (S)-[(S)-2-(5-{4-[4-(2-{(S)-1-[(S)-2-(methoxycarbonylamino)-3-methylbutanoyl]pyrrolidin-2-yl}-3H-imidazol-4-yl)buta-1,3-diynyl]phenyl}-1H-imidazol-2-yl)pyrrolidin-1-yl]-2-oxo-1-phenylethylcarbamate dihydrochloride [1.5•2HCl]	0.0082 nM	> 10000 nM	–	–	–
COC(=O)N[C@H](C(=O)N1CCC[C@H]1c1ncc(C#CC#Cc2ccc(-c3cnc([C@@H]4CCCN4C(=O)[C@@H](NC(=O)OC)C(C)C)[nH]3)c3ccccc23)[nH]1)C(C)C [1.8•2HCl, Methyl [(S)-1-((S)-2-{5-[4-(4-{2-[(S)-1-((S)-2-methoxycarbonylamino-3-methyl-butyryl)-pyrrolidin-2-yl]-3H-imidazol-4-yl}-buta-1,3-diynyl)-naphthalen-1-yl]-1H-imidazol-2-yl}-pyrrolidine-1-carbonyl)-2-methyl-propyl]-carbamate dihydrochloride]	–	–	0.0048 nM	> 10000 nM	–
COC(=O)N[C@H](C(=O)N1CCC[C@H]1c1ncc(C#CC#Cc2csc3c(-c4cnc([C@@H]5CCCN5C(=O)[C@@H](NC(=O)OC)C(C)C)[nH]4)csc23)[nH]1)C(C)C [1.10•2HCl, Methyl [(S)-1-((S)-2-{5-[6-(4-{2-[(S)-1-((S)-2-Methoxycarbonylamino-3-methyl-butyryl)-pyrrolidin-2-yl]-3H-imidazol-4-yl}-buta-1,3-diynyl)-thieno[3,2-b]thiophen-3-yl]-1H-imidazol-2-yl}-pyrrolidine-1-carbonyl)-2-methyl-propyl]-carbamate dihydrochloride]	–	–	0.002 nM	> 10000 nM	–
COC(=O)N[C@H](C(=O)N1CCC[C@H]1c1ncc(-c2ccc(C#CC#Cc3cnc([C@@H]4CCCN4C(=O)[C@@H](NC(=O)OC)C(C)C)[nH]3)cc2)[nH]1)c1ccccc1 [1.3•2HCl, Methyl (5)-[(S)-2-(5-{4-[4-(2-{(S)-1-[(S)-2-(methoxycarbonylamino)-3-methylbutanoyl]pyrrolidin-2-yl}-3H-imidazol-4-yl)buta-1,3-diynyl]phenyl}-1H-imidazol-2-yl)pyrrolidin-1-yl]-2-oxo-1-phenylethylcarbamate dihydrochloride]	0.0054 nM	> 10000 nM	–	–	–
COC(=O)N[C@H](C(=O)N1CCC[C@H]1c1ncc(C#CC#Cc2ccc3cc(-c4cnc([C@@H]5CCCN5C(=O)[C@@H](NC(=O)OC)C(C)C)[nH]4)ccc3c2)[nH]1)C(C)C [1.6•2HCl, Methyl [(S)-1-((S)-2-{5-[2-(4-{2-[(S)-1-((S)-2-methoxycarbonylamino-3-methyl-butyryl)-pyrrolidin-2-yl]-3H-imidazol-4-yl}-buta-1,3-diynyl)-naphthalen-6-yl]-1H-imidazol-2-yl}-pyrrolidine-1-carbonyl)-2-methyl-propyl]-carbamate dihydrochloride]	–	–	0.0046 nM	> 10000 nM	–
COC(=O)N[C@H](C(=O)N1CCC[C@H]1c1ncc(C#CC#Cc2ccc(-c3cnc([C@@H]4CCCN4C(=O)[C@@H](NC(=O)OC)C(C)C)[nH]3)cc2)[nH]1)C(C)C [1.1•2HCl, [(1S)-1-[[(2S)-2-[5-[4-[4-[2-[(2S)-1-[(2S)-2-[(Methoxycarbonyl)amino]-3-methyl-1-oxobutyl]-2-pyrrolidinyl]-1H-imidazol-5-yl]-1,3-butadiynyl]phenyl]-1H-imidazol-2-yl]-1-pyrrolidinyl]carbonyl]-2-methylpropyl]-carbamic acid methyl ester dihydrochloride]	–	–	–	–	IC50 ([1]; dihydrochloride): 0.0034 nM; CC50 ([2]; dihydrochloride): 85100 nM
COC(=O)N[C@H](C(=O)N1CCC[C@H]1c1nc(C#CC#Cc2ccc(-c3c[nH]c([C@@H]4CCCN4C(=O)[C@@H](NC(=O)OC)C(C)C)n3)s2)c[nH]1)C(C)C [1.9•2HCl, [(S)-1-((S)-2-{4-[4-(5-{2-[(S)-1-((S)-2-Methoxycarbonylamino-3-methyl-butyryl)-pyrrolidin-2-yl]-1H-imidazol-4-yl}-thiophen-2-yl)-buta-1,3-diynyl]-1H-imidazol-2-yl}-pyrrolidine-1-carbonyl)-2-methyl-propyl]-carbamic acid methyl ester dihydrochloride]	–	–	0.0032 nM	> 10000 nM	–
COC(=O)N[C@H](C(=O)N1CCC[C@H]1c1ncc(C#CC#Cc2ccc(-c3cnc([C@@H]4CCCN4C(=O)[C@@H](NC(=O)OC)C(C)C)[nH]3)cc2)[nH]1)C(C)C [Compound 1.1, [(1S)-1-[[(2S)-2-[5-[4-[4-[2-[(2S)-1-[(2S)-2-[(methoxycarbonyl)amino]-3-methyl-1-oxobutyl]-2-pyrrolidinyl]-1H-imidazol-5-yl]-1,3-butadiynyl]phenyl]-1H-imidazol-2-yl]-1-pyrrolidinyl]carbonyl]-2-methylpropyl]-carbamic acid methyl ester]	–	> 10000 nM	0.0031 nM	–	–
COC(=O)N[C@H](C(=O)N1CCC[C@H]1c1ncc(C#CC#Cc2cccc3c(-c4cnc([C@@H]5CCCN5C(=O)[C@@H](NC(=O)OC)C(C)C)[nH]4)cccc23)[nH]1)C(C)C [1.7•2HCl, Methyl [(S)-1-((S)-2-{5-[5-(4-{2-[(S)-1-((S)-2-methoxycarbonylamino-3-methyl-butyryl)-pyrrolidin-2-yl]-3H-imidazol-4-yl}-buta-1,3-diynyl)-naphthalen-1-yl]-1H-imidazol-2-yl}-pyrrolidine-1-carbonyl)-2-methyl-propyl]-carbamate dihydrochloride]	–	–	0.0036 nM	> 10000 nM	–
Methyl (R)-[(S)-2-(5-{4-[4-(2-{(S)-1-[(S)-2-(methoxycarbonylamino)-3-methylbutanoyl]pyrrolidin-2-yl}-3H-imidazol-4-yl)buta-1,3-diynyl]phenyl}-1H-imidazol-2-yl)pyrrolidin-1-yl]-2-oxo-1-phenylethylcarbamate dihydrochloride [1.4•2HCl]	0.0018 nM	> 10000 nM	–	–	–
